Where a name gives a salt, the structure may show the parent alone.
Columns and labels:
human NTCP [1] = target: T1, human NTCP (Homo sapiens, UniProt Q14973); test: Screening fluorescent competitive Myrcludex B-FITC binding assay (96-well, 10 µM drug); settings: 10 µM drug
T1 sequence (Q14973 1-349): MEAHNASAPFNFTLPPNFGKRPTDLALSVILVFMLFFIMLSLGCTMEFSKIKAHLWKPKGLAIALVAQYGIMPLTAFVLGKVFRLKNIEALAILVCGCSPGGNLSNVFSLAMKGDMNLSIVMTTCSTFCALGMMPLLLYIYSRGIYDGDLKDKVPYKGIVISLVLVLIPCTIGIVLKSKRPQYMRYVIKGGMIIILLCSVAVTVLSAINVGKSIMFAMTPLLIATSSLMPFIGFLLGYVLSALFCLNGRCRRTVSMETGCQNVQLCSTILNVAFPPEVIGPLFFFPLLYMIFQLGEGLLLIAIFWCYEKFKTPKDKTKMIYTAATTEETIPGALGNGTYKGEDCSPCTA

human NTCP [2] = target: T1, human NTCP; test: Screening taurocholate uptake assay (96-well, [14C]taurocholate, 10 µM drug); settings: for B-score functional assay: 10 µM drug
[3] = Prestwick library screen, Myrcludex B-FITC binding
[4] = Prestwick library screen, taurocholate uptake
[5] = ranking score beside the functional and binding assay B-scores of the screen
[6] = Prestwick library screen, B-score of Myrcludex B-FITC binding
[7] = Prestwick library screen, B-score of taurocholate uptake
[8] = combined ranking from functional and binding assay B-scores
[9] = screen, Myrcludex B-FITC binding
[10] = combined ranking from functional and binding screening assays

Compound | B-score binding assay (human NTCP [1]; [9]) | Ranking score (human NTCP [2]; [10]) | B-score functional assay (human NTCP [2]; screen, taurocholate uptake) | further results
CN(C)[C@@H]1C(O)=C(C(N)=O)C(=O)[C@@]2(O)C(O)=C3C(=O)c4c(O)ccc(Cl)c4[C@@H](O)[C@H]3C[C@@H]12 [Demeclocycline hydrochloride] | – | – | – | B-score binding assay (human NTCP [1]; [3]): 0.096; B-score functional assay (human NTCP [2]; [4]): 0.083; Ranking score (human NTCP [2]; [5]): 738.496
CN1[C@@H]2CC[C@H]1C[C@@H](OC1c3ccccc3CCc3ccccc31)C2.O=C(O)CC(O)(CC(=O)O)C(=O)O [Deptropine citrate] | – | – | – | B-score binding assay (human NTCP [1]; [6]): 0.633; B-score functional assay (human NTCP [2]; [7]): 0.947; Ranking score (human NTCP [2]; [8]): 1000.12
Cc1cc(N)c2ccccc2[n+]1CCCCCCCCCC[n+]1c(C)cc(N)c2ccccc21 [Dequalinium dichloride] | – | – | – | B-score binding assay (human NTCP [1]; [3]): 3.994; B-score functional assay (human NTCP [2]; [4]): -0.527; Ranking score (human NTCP [2]; [5]): 680.714
CC1(C)O[C@@H]2C[C@H]3[C@@H]4CCC5=CC(=O)C=C[C@]5(C)[C@H]4[C@@H](O)C[C@]3(C)[C@]2(C(=O)CO)O1 [Desonide] | – | – | – | B-score binding assay (human NTCP [1]; [3]): 0.993; B-score functional assay (human NTCP [2]; [4]): -0.358; Ranking score (human NTCP [2]; [5]): 665.567
CCN[C@@H](C)Cc1cccc(C(F)(F)F)c1 [Dexfenfluramine hydrochloride] | -0.169 | 401.597 | -0.697 | –
CC(=O)Nc1c(I)c(NC(C)=O)c(I)c(C(=O)O)c1I.O.O [Diatrizoic acid dihydrate] | – | – | – | B-score binding assay (human NTCP [1]; [3]): 1.833; B-score functional assay (human NTCP [2]; [4]): -0.248; Ranking score (human NTCP [2]; [5]): 739.319
CC1=NS(=O)(=O)c2cc(Cl)ccc2N1 [Diazoxide] | -0.26 | 331.971 | -1.121 | –
NS(=O)(=O)c1cc(Cl)c(Cl)c(S(N)(=O)=O)c1 [Dichlorphenamide] | – | – | – | B-score binding assay (human NTCP [1]; [6]): 2.215; B-score functional assay (human NTCP [2]; [7]): 0.709; Ranking score (human NTCP [2]; [8]): 1091.62
Cc1onc(-c2c(Cl)cccc2Cl)c1C(=O)N[C@@H]1C(=O)N2[C@@H]1SC(C)(C)[C@@H]2C(=O)[O-].O.[Na+] [Dicloxacillin sodium salt hydrate] | – | – | – | B-score binding assay (human NTCP [1]; [6]): 0.373; B-score functional assay (human NTCP [2]; [7]): 0.63; Ranking score (human NTCP [2]; [8]): 908.983
O=c1oc2ccccc2c(O)c1Cc1c(O)c2ccccc2oc1=O [Dicumarol] | 1.31 | 403.485 | -1.792 | –
O=c1[nH]cnc2c1ncn2[C@H]1CC[C@@H](CO)O1 [Didanosine] | – | – | – | B-score binding assay (human NTCP [1]; [6]): 1.663; B-score functional assay (human NTCP [2]; [7]): 0.086; Ranking score (human NTCP [2]; [8]): 927.069
C/C=C(/C(=C/C)c1ccc(O)cc1)c1ccc(O)cc1 [Dienestrol] | -0.567 | 419.874 | -0.196 | –
CCN(CC)C(=O)N1CCN(C)CC1 [Diethylcarbamazine citrate] | – | – | – | B-score binding assay (human NTCP [1]; [3]): -0.121; B-score functional assay (human NTCP [2]; [4]): 0.671; Ranking score (human NTCP [2]; [5]): 718.594
CC(=O)OCC(=O)[C@@]1(OC(C)=O)[C@@H](C)C[C@H]2[C@@H]3C[C@H](F)C4=CC(=O)C=C[C@]4(C)[C@@]3(F)[C@@H](O)C[C@@]21C [Diflorasone Diacetate] | -1.118 | 327.658 | -0.194 | –
C[C@]12CC[C@H](O)C[C@H]1CC[C@@H]1[C@@H]2CC[C@]2(C)[C@@H](C3=CC(=O)OC3)CC[C@]12O [Digitoxigenin] | 1.274 | 348.633 | -2.282 | –
C[C@]12CC[C@H](O)C[C@H]1CC[C@@H]1[C@@H]2C[C@@H](O)[C@]2(C)[C@@H](C3=CC(=O)OC3)CC[C@]12O [Digoxigenin] | -1.199 | 283.718 | -0.468 | –
C[C@H]1O[C@@H](O[C@H]2[C@@H](O)C[C@H](O[C@H]3[C@@H](O)C[C@H](O[C@H]4CC[C@@]5(C)[C@H](CC[C@@H]6[C@@H]5C[C@@H](O)[C@]5(C)[C@@H](C7=CC(=O)OC7)CC[C@]65O)C4)O[C@@H]3C)O[C@@H]2C)C[C@H](O)[C@@H]1O [Digoxin] | 2.8 | 426.002 | -1.822 | –
CN1C[C@H](C(=O)N[C@]2(C)O[C@@]3(O)[C@@H]4CCCN4C(=O)[C@H](Cc4ccccc4)N3C2=O)C[C@@H]2c3cccc4[nH]cc(c34)C[C@H]21.CN1C[C@H](C(=O)N[C@]2(C)O[C@@]3(O)[C@@H]4CCCN4C(=O)[C@H](Cc4ccccc4)N3C2=O)C[C@@H]2c3cccc4[nH]cc(c34)C[C@H]21.O=C(O)C(O)C(O)C(=O)O [Dihydroergotamine tartrate] | -1.57 | 379.284 | 0.679 | –
COc1ccc([C@@H]2Sc3ccccc3N(CCN(C)C)C(=O)[C@@H]2OC(C)=O)cc1 [Diltiazem hydrochloride] | -0.608 | 351.949 | -0.552 | –
CN(C)CCCSC(=N)N.Cl.Cl [Dimaprit dihydrochloride] | – | – | – | B-score binding assay (human NTCP [1]; [6]): 1.724; B-score functional assay (human NTCP [2]; [7]): 0.472; Ranking score (human NTCP [2]; [8]): 1022.56

— PMC5681660, “Reduced hepatitis B and D viral entry using clinically applied drugs as novel inhibitors of the bile acid transporter NTCP” (Scientific Reports, 2017)
